Experiment [1] has as its target T1, Angiotensin-converting enzyme (Homo sapiens, UniProt P12821). As to the kind of experiment: Inhibition of somatic ACE N domain upto 500 uM.
In experiment [2] the target is T1, Angiotensin-converting enzyme. As to the kind of experiment: Inhibition of testis ACE C domain.
The target is the same in experiment [3]. As to the kind of experiment: Selectivity for ACE C domain over ACE N domain.

Active and inactive are the calls of the source. The rule behind the calls is not given here.

T1 sequence (P12821 whole entry): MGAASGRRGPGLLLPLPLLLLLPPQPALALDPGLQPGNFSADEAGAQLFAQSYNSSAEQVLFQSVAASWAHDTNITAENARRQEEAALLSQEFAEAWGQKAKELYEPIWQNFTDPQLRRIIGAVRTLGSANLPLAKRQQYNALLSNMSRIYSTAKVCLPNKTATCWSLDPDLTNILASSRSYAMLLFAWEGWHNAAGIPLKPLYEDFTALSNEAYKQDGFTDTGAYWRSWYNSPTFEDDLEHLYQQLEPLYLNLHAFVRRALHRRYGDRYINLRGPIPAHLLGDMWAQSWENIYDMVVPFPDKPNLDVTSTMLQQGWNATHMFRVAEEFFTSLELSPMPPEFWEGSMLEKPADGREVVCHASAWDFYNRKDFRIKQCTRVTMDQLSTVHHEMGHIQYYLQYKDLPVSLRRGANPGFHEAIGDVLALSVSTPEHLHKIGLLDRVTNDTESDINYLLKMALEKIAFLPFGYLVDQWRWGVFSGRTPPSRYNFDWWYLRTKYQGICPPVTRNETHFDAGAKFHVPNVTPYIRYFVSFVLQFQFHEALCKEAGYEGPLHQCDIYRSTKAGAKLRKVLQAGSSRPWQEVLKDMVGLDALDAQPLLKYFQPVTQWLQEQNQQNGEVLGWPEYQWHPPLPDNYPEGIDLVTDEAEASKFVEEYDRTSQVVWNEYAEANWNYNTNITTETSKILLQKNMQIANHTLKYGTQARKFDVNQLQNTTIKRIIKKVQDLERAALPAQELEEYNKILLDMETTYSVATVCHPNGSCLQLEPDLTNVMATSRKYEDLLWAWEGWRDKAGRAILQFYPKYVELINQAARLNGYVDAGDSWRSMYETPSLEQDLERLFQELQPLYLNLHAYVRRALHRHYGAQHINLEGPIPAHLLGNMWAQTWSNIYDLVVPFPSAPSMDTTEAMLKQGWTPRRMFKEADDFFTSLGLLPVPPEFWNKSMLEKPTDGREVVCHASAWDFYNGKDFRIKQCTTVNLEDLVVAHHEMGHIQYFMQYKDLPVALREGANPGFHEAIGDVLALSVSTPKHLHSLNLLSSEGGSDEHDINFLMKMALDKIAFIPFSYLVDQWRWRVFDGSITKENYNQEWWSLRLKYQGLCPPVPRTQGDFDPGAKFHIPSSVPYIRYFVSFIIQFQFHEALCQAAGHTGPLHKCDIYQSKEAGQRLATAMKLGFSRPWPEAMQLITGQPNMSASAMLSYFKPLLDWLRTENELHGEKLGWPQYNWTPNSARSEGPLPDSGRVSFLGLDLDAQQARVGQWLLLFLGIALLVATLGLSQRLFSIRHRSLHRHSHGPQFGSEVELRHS

For orientation: Ki means the equilibrium dissociation constant of an inhibitor or competing ligand from its target. The low end stands for higher affinity, the high end for lower affinity. As for `NCCCC[C@H](N[C@@H](CCc1ccccc1)C(=O)O)C(=O)N[C@@H](Cc1c[nH]c2ccccc12)C(=O)O`, the outcome in experiment [1] was inactive. The Ki in experiment [2] came out at 7 µM. In addition, the Ratio Ki in experiment [3] was greater than 100.

As for `NCCCC[C@H](N[C@H](CCc1ccccc1)C(=O)O)C(=O)N[C@@H](Cc1c[nH]c2ccccc12)C(=O)O`, in experiment [1], the outcome was inactive. The compound also had a Ki in experiment [2] of 26.3 µM. Further, the Ratio Ki in experiment [3] is greater than 25.

Source of the values: ChEMBL document CHEMBL1149517, “Synthesis and molecular modeling of a lisinopril-tryptophan analogue inhibitor of angiotensin I-converting enzyme” (Bioorg Med Chem Lett, 2006).
